The values below come from patent publication US10730911B2, “Backbone-cyclized peptidomimetics with GLP-1R modulating activity” (POLYPHOR AG, priority 2015, dated 2020).

Molecules are shown by their SMILES. Where a SMILES comes first, the peptide text is derived from it. [ ]: non-standard residue; d: D form. Trp(5-OH) = N[C@@H](Cc1c[nH]c2ccc(O)cc12)C(=O)O; Tyr(Ph) = N[C@@H](Cc1ccc(Oc2ccccc2)cc1)C(=O)O; His(π-Bn) = N[C@@H](Cc1cncn1Cc1ccccc1)C(=O)O; Phe(4-NH2) = Nc1ccc(C[C@H](N)C(=O)O)cc1; Cit = NC(=O)NCCC[C@H](N)C(=O)O; Aic = NC1(C(=O)O)Cc2ccccc2C1; Ac7c = NC1(C(=O)O)CCCCCC1; Ac6c = NC1(C(=O)O)CCCCC1; Dpg = CCCC(N)(CCC)C(=O)O; Ac5c = NC1(C(=O)O)CCCC1; Aib = CC(C)(N)C(=O)O

In this experiment the target is T1, human glucagon-like peptide-1 receptor (GLP-1R) (Homo sapiens, UniProt P43220).
T1 construct: host or cells: CHO chAMPion cells
T1 sequence (P43220 24-463): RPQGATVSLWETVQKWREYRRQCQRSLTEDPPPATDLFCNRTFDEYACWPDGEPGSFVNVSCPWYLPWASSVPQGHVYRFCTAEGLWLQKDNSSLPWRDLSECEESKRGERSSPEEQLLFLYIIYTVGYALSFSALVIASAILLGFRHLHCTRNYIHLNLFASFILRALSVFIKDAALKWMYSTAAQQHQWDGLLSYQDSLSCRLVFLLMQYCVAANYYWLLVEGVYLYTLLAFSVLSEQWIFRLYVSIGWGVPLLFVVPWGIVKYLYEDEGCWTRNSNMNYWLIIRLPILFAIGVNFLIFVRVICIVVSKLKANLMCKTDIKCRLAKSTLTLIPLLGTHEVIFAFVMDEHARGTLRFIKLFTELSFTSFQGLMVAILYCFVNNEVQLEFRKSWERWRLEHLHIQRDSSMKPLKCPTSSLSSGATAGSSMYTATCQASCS
The experiment can be described thus: Human GLP-1 receptor cell-based assay (flash luminescence, Target Activation phase). Conditions: CHO chAMPion cells stably co-expressing human GLP-1R, Photina and cAMP-activated calcium channel; agonist activity; normalization by forskolin at 10 μM; ^a) values from single experiment; read-out: EC50 (μM) Target Activation (TA). The source says: CHO chAMPion cells (Axxam SpA; S. Corazza, Assay Drug Dev. Technol. 2009, 7, 304-307) stably co-expressing the human glucagon-like peptide-1 receptor (GLP-1R), the Ca^2+-sensitive photoprotein PHOTINA® (S. Bovolenta et al., J. Biomol. Screen. 2007, 12, 694-704) and a mutated cAMP-activated calcium ion channel (WO2004/083803 A2) were used to monitor GLP-1R signaling after stimulation with an agonist. Activation of the Gas-coupled GPCR GLP-1R was monitored by measuring the flash luminescence of the Ca^2+-sensitive photoprotein as reporter system with FLIPR^TETRA screening instrumentation (Molecular Devices) upgraded with an ICCD Camera (MDC). For data quality check and data analysis the Genedata SCREENER® software was used.
The reference agonist GLP-1 (glucagon-like peptide-1 amide fragment 7-36) and forskolin were purchased from Sigma (cat. G8147 and F6886, respectively) and prepared according to each ligand's specifications. All handling of ligands were done to ensure proper control throughout the experiments. The steps of the implemented workflow and data analysis are mainly as follows:
Stably transfected chAMPion cells are seeded 10000 c/w in 384 MTP in Dulbecco's MEM/nutrient mix F12 (BioWhittaker cat. BE04-687F/U1; 500 mL) supplemented with sodium pyruvate (BioWhittaker cat. BE13-115E; 5 mL of 100 mM solution), HEPES (BioWhittaker cat. BE17-737E; 6.5 mL of 1M solution), sodium bicarbonate (BioWhittaker cat. BE17-613E; 25 mL of 7.5% solution), fetal bovine serum (Euroclone cat. ECS 0180L; 50 mL), penicillin-streptomycin (BioWhittaker cat. DE17-602E; 5 mL of 100×solution), 1 mg/mL G418 (selection antibiotic for GLP-1R) and 200 μg/mL hygromycin in 25 μL/well for 24 hours. On the day of the experiment, plates are removed from the incubator, freed from the growth medium, equilibrated at room temperature for 1 h, loaded with 30 μl/well of Ca^2+ free Tyrode's buffer containing 20 μM coelentrazine and 500 μM IBMX, and incubated for 4 hours at room temperature.
All compounds were tested at 8 concentrations, starting from 50 μM in quadruplicate, intra-plate (dilution step 1:2.15) to determine EC50 values. After incubation, the volume in all the wells is flattened to 20 αL by aspiration with a CYBIO®-VARIO pipettor. First Injection (10 μL of test compounds in Ca^2+ free Tyrode's buffer, DMSO 0.5% v/v and BSA 0.01%; or 10 μL of reference compounds GLP-1 or forskolin in Ca′ free Tyrode's buffer, DMSO 0.5% v/v and BSA 0.01%) is performed by the FLIPR^TETRA and the kinetic response is optionally monitored over a period of 60 seconds. Incubation for 30 minutes at room temperature is followed by the Second Injection (Tyrode's buffer+10 mM CaCl2)) and the kinetic response is monitored over a period of 60 seconds.
The kinetic response is divided into two distinct phases: monitoring the kinetic response after the First Injection, termed Compound Addition (CA), and monitoring the kinetic response after the Second Injection of 10 mM CaCl2, termed Target Activation (TA). Agonist activity of compounds is evaluated in the Target Activation (TA) phase and it is based on normalization to TA activation by forskolin at 10 μM or GLP-1 at 3.16 nM (EC100)
A good correlation was observed between EC50, data normalized by forskolin and by GLP-1.
As for `CC(C)C[C@@H]1NC(=O)[C@H](CC(C)C)NC(=O)[C@H](CCC(=O)O)NC(=O)[C@H](Cc2ccccc2)NC(=O)C2(CCCCC2)NC(=O)[C@H]2CCCN2C(=O)[C@H](Cc2ccccc2)NC(=O)[C@H](CCC(=O)O)NC(=O)[C@H](Cc2c[nH]c3ccccc23)NC(=O)[C@H](C)NC1=O` [Ex. 43, cyclo(-Phe-Glu-Leu-Leu-Ala-Trp-Glu-Phe-^DPro-Chx-)] (cyclo(FELLAWEF[dP][Ac6c])), the EC50 was determined as 4.5 ± 2.6 µM.

In the case of `C[C@@H]1NC(=O)[C@H](Cc2ccc(O)cc2)NC(=O)[C@H](CCC(N)=O)NC(=O)[C@H](Cc2ccc(O)cc2)NC(=O)[C@H](Cc2ccccc2)NC(=O)C2(CCCCC2)NC(=O)[C@H]2CCCN2C(=O)[C@H](Cc2ccc(O)cc2)NC(=O)[C@H](CCC(=O)O)NC(=O)[C@H](Cc2c[nH]c3ccccc23)NC1=O` [compound 14, cyclo(-Phe-Tyr-Gln-Tyr-Ala-Trp-Glu-Tyr-^DPro-Chx-)] (cyclo(FYQYAWEY[dP][Ac6c])), the concentration giving a half-maximal response (EC50) was found to be 0.72 ± 0.43 µM.

Regarding `CC(C)C[C@@H]1NC(=O)[C@H](Cc2c[nH]cn2)NC(=O)[C@H](Cc2ccccc2)NC(=O)C2(CCCCC2)NC(=O)[C@H]2CCCN2C(=O)[C@H](Cc2ccc(O)cc2)NC(=O)[C@H](CCC(=O)O)NC(=O)[C@H](Cc2c[nH]c3ccccc23)NC(=O)[C@H](C)NC(=O)[C@H](Cc2ccc(O)cc2)NC1=O` [compound 20, cyclo(-Phe-His-Leu-Tyr-Ala-Trp-Glu-Tyr-^DPro-Chx-)] (cyclo(FHLYAWEY[dP][Ac6c])), the EC50 was 0.59 ± 0.35 µM.

Turning to `CC(C)C[C@@H]1NC(=O)[C@H](CCC(=O)O)NC(=O)[C@H](Cc2ccccc2)NC(=O)C2(CCCCC2)NC(=O)[C@H]2CCCN2C(=O)[C@H](Cc2ccc(O)cc2)NC(=O)[C@H](CCCNC(N)=O)NC(=O)[C@H](Cc2c[nH]c3ccccc23)NC(=O)[C@H](C)NC(=O)[C@H](Cc2ccc(O)cc2)NC1=O` [compound 38, cyclo(-Phe-Glu-Leu-Tyr-Ala-Trp-Cit-Tyr-^DPro-Chx-)] (cyclo(FELYAW[Cit]Y[dP][Ac6c])), the EC50 is 0.93 µM.

Consider `C[C@@H]1NC(=O)[C@H](Cc2ccc(O)cc2)NC(=O)[C@H](CCC(N)=O)NC(=O)[C@H](Cc2ccc(Oc3ccccc3)cc2)NC(=O)[C@H](Cc2ccccc2)NC(=O)C2(CCCCC2)NC(=O)[C@H]2CCCN2C(=O)[C@H](Cc2ccc(O)cc2)NC(=O)[C@H](CCC(=O)O)NC(=O)[C@H](Cc2c[nH]c3ccccc23)NC1=O` [compound 7, cyclo(-Phe-Tyr(Ph)-Gln-Tyr-Ala-Trp-Glu-Tyr-^DPro-Chx-)] (cyclo(F[Tyr(Ph)]QYAWEY[dP][Ac6c])), for which the EC50 was 0.57 ± 0.58 µM.

As for `C[C@@H]1NC(=O)[C@H](Cc2ccc(O)cc2)NC(=O)[C@H](CCC(N)=O)NC(=O)[C@H](Cc2ccc(Oc3ccccc3)cc2)NC(=O)[C@H](Cc2ccccc2)NC(=O)C2(CCCCC2)NC(=O)[C@H]2CCCN2C(=O)[C@H](CCCNC(=N)N)NC(=O)[C@H](CCC(=O)O)NC(=O)[C@H](Cc2c[nH]c3ccccc23)NC1=O` [compound 6, cyclo(-Phe-Tyr(Ph)-Gln-Tyr-Ala-Trp-Glu-Arg-^DPro-Chx-)] (cyclo(F[Tyr(Ph)]QYAWER[dP][Ac6c])), the EC50 came out at 0.19 ± 0.12 µM.

As to `CC(C)C[C@@H]1NC(=O)[C@H](CCC(=O)O)NC(=O)[C@H](Cc2ccccc2)NC(=O)C2(CCCCC2)NC(=O)[C@H]2CCCN2C(=O)[C@H](Cc2cncn2Cc2ccccc2)NC(=O)[C@H](CCC(=O)O)NC(=O)[C@H](Cc2c[nH]c3ccccc23)NC(=O)[C@H](C)NC(=O)[C@H](Cc2ccc(O)cc2)NC1=O` [compound 36, cyclo(-Phe-Glu-Leu-Tyr-Ala-Trp-Glu-His(Bn)-^DPro-Chx-)] (cyclo(FELYAWE[His(π-Bn)][dP][Ac6c])), the half-maximal effective concentration (EC50) amounted to 0.85 µM.

As to `CC(C)C[C@@H]1NC(=O)[C@H](CCC(=O)O)NC(=O)[C@H](Cc2ccccc2)NC(=O)C2(CCCCC2)NC(=O)[C@H]2CCCN2C(=O)[C@H](Cc2ccc(O)cc2)NC(=O)[C@H](Cc2c[nH]c3ccc(O)cc23)NC(=O)[C@H](Cc2c[nH]c3ccccc23)NC(=O)[C@H](C)NC(=O)[C@H](Cc2ccc(O)cc2)NC1=O` [compound 28, cyclo(-Phe-Glu-Leu-Tyr-Ala-Trp-Trp(5OH)-Tyr-^DPro-Chx-)] (cyclo(FELYAW[Trp(5-OH)]Y[dP][Ac6c])), the concentration for a half-maximal effect (EC50) turned out to be 1.2 ± 0.9 µM.

As for `C[C@@H]1NC(=O)[C@H](Cc2ccc(O)cc2)NC(=O)[C@H](CCC(N)=O)NC(=O)[C@H](Cc2ccc(N)cc2)NC(=O)[C@H](Cc2ccccc2)NC(=O)C2(CCCCC2)NC(=O)[C@H]2CCCN2C(=O)[C@H](CCCNC(=N)N)NC(=O)[C@H](CCC(=O)O)NC(=O)[C@H](Cc2c[nH]c3ccccc23)NC1=O` [compound 21, cyclo(-Phe-Phe(4NH2)-Gln-Tyr-Ala-Trp-Glu-Arg-^DPro-Chx-)] (cyclo(F[Phe(4-NH2)]QYAWER[dP][Ac6c])), the EC50 was 0.67 ± 0.28 µM.

`CC(C)C[C@@H]1NC(=O)[C@H](CCC(=O)O)NC(=O)[C@H](Cc2ccccc2)NC(=O)C2(Cc3ccccc3C2)NC(=O)[C@H]2CCCN2C(=O)[C@H](Cc2ccc(O)cc2)NC(=O)[C@H](CCC(=O)O)NC(=O)[C@H](Cc2c[nH]c3ccccc23)NC(=O)[C@H](C)NC(=O)[C@H](Cc2ccc(O)cc2)NC1=O` [compound 13, cyclo(-Phe-Glu-Leu-Tyr-Ala-Trp-Glu-Tyr-^DPro-Ind-)] (cyclo(FELYAWEY[dP][Aic])): the EC50 is 0.66 ± 0.25 µM.

`CC(C)C[C@@H]1NC(=O)[C@H](CC(C)C)NC(=O)[C@H](CCC(=O)O)NC(=O)[C@H](Cc2ccccc2)NC(=O)C2(CCCC2)NC(=O)[C@H]2CCCN2C(=O)[C@H](Cc2ccccc2)NC(=O)[C@H](CCC(=O)O)NC(=O)[C@H](Cc2c[nH]c3ccccc23)NC(=O)[C@H](C)NC1=O` [compound 44, cyclo(-Phe-Glu-Leu-Leu-Ala-Trp-Glu-Phe-^DPro-Cyp-)] (cyclo(FELLAWEF[dP][Ac5c])): the EC50 is 2.9 ± 0.7 µM.

Consider `CC(C)C[C@@H]1NC(=O)[C@H](CC(C)C)NC(=O)[C@H](CCC(=O)O)NC(=O)[C@H](Cc2ccccc2)NC(=O)C2(CCCCCC2)NC(=O)[C@H]2CCCN2C(=O)[C@H](Cc2ccccc2)NC(=O)[C@H](CCC(=O)O)NC(=O)[C@H](Cc2c[nH]c3ccccc23)NC(=O)[C@H](C)NC1=O` [compound 53, cyclo(-Phe-Glu-Leu-Leu-Ala-Trp-Glu-Phe-^DPro-Ac7c-)] (cyclo(FELLAWEF[dP][Ac7c])), for which the concentration for a half-maximal effect (EC50) was 2.1 µM.

Consider `CC(C)C[C@@H]1NC(=O)[C@H](CCC(=O)O)NC(=O)[C@H](Cc2ccccc2)NC(=O)C2(CCCCC2)NC(=O)[C@H]2CCCN2C(=O)[C@H](Cc2c[nH]cn2)NC(=O)[C@H](CCC(=O)O)NC(=O)[C@H](Cc2c[nH]c3ccccc23)NC(=O)[C@H](C)NC(=O)[C@H](Cc2ccc(O)cc2)NC1=O` [compound 39, cyclo(-Phe-Glu-Leu-Tyr-Ala-Trp-G lu-H is-^DP ro-Chx-)] (cyclo(FELYAWEH[dP][Ac6c])), for which the half-maximal effective concentration (EC50) stood at 1 ± 0.1 µM.

As for `C[C@@H]1NC(=O)[C@H](Cc2ccc(O)cc2)NC(=O)[C@H](CCC(N)=O)NC(=O)[C@H](Cc2ccc(Oc3ccccc3)cc2)NC(=O)[C@H](Cc2ccccc2)NC(=O)C(C)(C)NC(=O)[C@H]2CCCN2C(=O)[C@H](CCCNC(=N)N)NC(=O)[C@H](CCC(=O)O)NC(=O)[C@H](Cc2c[nH]c3ccccc23)NC1=O` [compound 11, cyclo(-Phe-Tyr(Ph)-Gln-Tyr-Ala-Trp-Glu-Arg-^DPro-Aib-)] (cyclo(F[Tyr(Ph)]QYAWER[dP][Aib])), the EC50 was 0.54 ± 0.43 µM.

`CCCC1(CCC)NC(=O)[C@H]2CCCN2C(=O)[C@H](Cc2ccccc2)NC(=O)[C@H](CCC(=O)O)NC(=O)[C@H](Cc2c[nH]c3ccccc23)NC(=O)[C@H](C)NC(=O)[C@H](CC(C)C)NC(=O)[C@H](CC(C)C)NC(=O)[C@H](CCC(=O)O)NC(=O)[C@H](Cc2ccccc2)NC1=O` [compound 26, cyclo(-Phe-Glu-Leu-Leu-Ala-Trp-Glu-Phe-^DPro-Dpg-)] (cyclo(FELLAWEF[dP][Dpg])): the EC50 amounted to 1 ± 0.5 µM.

In general, EC50 refers to the concentration that produces a half-maximal response.
